One compound from publication PMC5306082, “Physiologically based kinetic modeling of the bioactivation of myristicin” (Archives of Toxicology, 2016) can be followed below.

Assay [1] is described as follows: Microsomal conversion of myristicin, human liver microsomes. It counts as in vitro ADME. As to the method: First, it was determined which organs are involved in the biotransformation of myristicin in rat and human. For this purpose, liver, kidney, lung, and small intestine microsomes from male Sprague–Dawley rat and pooled gender human were used. Incubations were performed by adding myristicin to incubation mixtures containing 1 mg/mL of the microsomal protein preparations and 3 mM NADPH in 0.2 M Tris–HCl (pH 7.4). After 1 min of pre-incubation at 37 °C, myristicin (final concentration, 1000 μM) was added from a 100 times concentrated stock solution in DMSO so that the final DMSO content was 1 % (v/v). Incubations were carried out for 30 min after which the reactions were terminated by adding 25 µl (0.25 times the incubation volume) of ice-cold ACN. Samples were centrifuged for 5 min at 13,000×g, and the supernatant was stored at −20 °C until UPLC analysis. As metabolism of myristicin was observed only in incubations with liver microsomes for male rats and pooled gender human, the determination of kinetic constants for the formation of microsomal metabolites was performed only for the liver fractions. Incubations to determine kinetic constants were performed following the conditions described above using final concentrations of myristicin from 25 to 1000 μM for rat and human liver. In all incubations, the final concentration of DMSO, in which myristicin was dissolved, was kept at 1 % (v/v). The formation of different microsomal metabolites was linear with time and microsomal protein concentration under the conditions described. Blank incubations were performed in the absence of the cofactor NADPH. All incubations were performed in triplicate.
Secondary metabolism of the relevant 1′-hydroxy metabolite of myristicin was taken into account by determining the kinetic constants for its conversion in (a) glucuronidation, (b) sulfation, and (c) oxidation, again under conditions that allowed adequate definition of kinetic constants and with <10 % substrate conversion. Incubation samples were subjected to UPLC analysis that was performed as described previously (Punt et al. [2008]). Identification was achieved by comparing the UV spectra of the formed metabolites to the spectra of the synthesized 1′-hydroxymyristicin and 1′-oxomyristicin reference standards. Quantification of all formed metabolites was done by comparing the peak areas to those of calibration curves of the corresponding reference compounds, determined using UPLC with photodiode array detection (UPLC-PDA). The UPLC system was composed of a Waters (Waters, Milford, MA) Acquity solvent manager, sample manager, and photodiode array detector, equipped with Water Acquity UPLC BEH C18 column.
The gradient for analysis of microsomal metabolites was performed with 100 % ACN and ultrapure water containing 0.1 % (v/v) TFA. The flow rate was 0.6 ml/min. The gradient started at 10 % ACN, increased to 50 % ACN over 4 min, increased to 80 % over 0.5 min, followed by decrease to 10 % ACN over 0.5 min, and finally kept at 10 % for 1 min.
In general terms: Liver microsomes are vesicles of endoplasmic reticulum, rich in cytochrome P450 enzymes.

A short description of assay [2]: Oxidation of 1′-hydroxymyristicin to 1′-oxomyristicin, human liver microsomes. It counts as in vitro ADME. The conditions noted are these: human vs rat. As to the method:
The kinetic constants for the enzymatic conversion of 1′-hydroxymyristicin to 1′-oxomyristicin were determined using incubation mixtures containing (final concentrations) 3 mM NAD^+, 2 mM GSH, and 1 mg/ml rat or human liver microsomes in 0.2 M Tris–HCl (pH 7.4). GSH was added to the incubation mixtures to trap the reactive 1′-oxo metabolite formed after oxidation of 1′-hydroxymyristicin. The level of GSH in the incubations was optimized in a previous study to obtain maximum scavenging of 1′-oxoestragole (Punt et al. [2009]). To this end, incubations were performed in the presence of increasing concentrations of GSH, ranging from 2 to 10 mM. […] Kinetic constants for this reaction in rat and human liver were derived by performing incubations with NAD^+ as a cofactor, given that in rat and human liver, NAD^+ is mainly present in an oxidized form with levels of NAD^+ being much higher than those of NADH. In a previous study, it was shown that the highest level of 1′-hydroxy alkenylbenzene oxidation occurs in incubations with microsomes in the presence of NAD^+ as cofactor. […] The enzyme responsible for the oxidation may be 17β-hydroxysteroid dehydrogenase type 2 (17β-HSD2) (Punt et al. [2010]). Prior to the addition of 1′-hydroxymyristicin at final concentrations ranging between 10 and 4000 μM to the incubation mixture from 100 times concentrated stock solutions in DMSO, samples were pre-incubated for 1 min at 37 °C. Reactions were terminated after 10 min of incubation at 37 °C by adding 25 μl (0.25 times the incubation volume) of ice-cold ACN. The formation of the GSH conjugate of 1′-oxomyristicin (GS-1′-oxomyristicin) was linear with time and microsomal protein concentration under the experimental conditions used. Blank incubations were performed without the cofactor NAD^+. Incubations were performed in triplicate. All samples were centrifuged for 5 min at 13,000×g, and the supernatant was stored at −20 °C until UPLC analysis.
Quantification of GS-1′-oxomyristicin was based on a calibration curve of the GSH adduct of the synthesized 1′-oxymyristicin made as previously described (van den Berg et al. [2012]; Punt et al. [2009]; Martati et al. [2011]; Al-Subeihi et al. [2011]). In short, a 60 μM concentration of the synthetic standard of 1′-oxomyristicin, dissolved in ACN, was incubated with different concentrations of GSH (i.e., 0–20 μM) in 0.2 M Tris–HCl (pH 7.4) for 6 h at 37 °C, resulting in full conversion of the GSH to GS-1′-oxymyristicin. Quantification was done by comparing the peak areas of the formed GS-1′-oxo metabolite in the incubation mixtures with peak areas of the GS-1′-oxymyristicin calibration curve thus obtained at a wavelength of 212 nm. The gradient for analysis of the metabolite consisted of a mixture of ACN and ultrapure water containing 0.1 % (v/v) TFA. The flow rate was 0.6 ml/min, The gradient started with 10 % ACN, increased to 30 % ACN over 2.5 min, after which ACN was increased to 80 % over 0.5 min, kept at 80 % for 0.5 min, followed by a decrease to 10 % over 0.5 min, and finally kept at 10 % for 0.5 min.

SMILES strings stand for the structures.

For `C=CC(O)c1cc(OC)c2c(c1)OCO2` (centres unmarked) [1′-Hydroxymyristicin, 1′-hydroxymyristicin], the Vmax in assay [1] (formation of the metabolite from myristicin, NADPH, mean of three ± SD) is on record as 0.17 ± 0.03 nmol min^−1 (mg microsomal or S9 protein)^−1. The “In vitro catalytic efficiency” value in assay [1] (formation of the metabolite from myristicin, Vmax/Km × 1000) is 0.726 μl min^−1 (mg microsomal or S9 protein)^−1. Also, in assay [1] (from myristicin, microsomal protein yield 32 mg/g liver), the “Scaled Vmax, in vivo” value turned out to be 0.326 μmol/h/g tissue. Further, in assay [1] (from myristicin, scaled Vmax/Km), the “In vivo catalytic efficiency” value is given as 0.0014 ml/h/g tissue. The “oxidation, times more efficient in human liver than in male rat liver” value in assay [2] is reported as 1.2 times.
